Laboratory results: US11999758B2, “Inhibitors of the YAP/TAZ-TEAD interaction and their use in the treatment of cancer” (INVENTIVA, priority 2018, dated 2024)

Molecular target: T1, YAP-TEAD interaction (Homo sapiens, UniProt P28347)
T1 construct: expressed in transfected cells; host or cells: HEK293 GripTite 293 MSR (Invitrogen R795-07)
Experiment: Cell-based TEAD-GAL4 transactivation assay (luciferase reporter)
Conditions: HEK293 cells transfected with TEAD1-Gal4, YAP mutant (S127A, S397A) and luciferase reporter, compounds 0.1 μM to 30 μM; for Emax: HEK293, 24 h, read-out: TEAD-GAL4 Transactivation activity Max Act; for IC50: 24 h
Procedure: To identify inhibitors of YAP-TEAD interaction, a transient transactivation assay was carried out on HEK293 cell line (HEK293 GripTite™ 293 MSR (Invitrogen R795-07)) using plasmids containing the full length TEAD1 sequences, the full length YAP mutant (S127A, S397A) and a luciferase gene reporter. All expression constructs were performed into a pSG5 backbone plasmid in which the SV40 promoter was replaced by the CMV promoter. The TEAD1 construct was prepared by cloning the full-length human TEAD1 cDNA in fusion with the Gal4 DNA Binding Domain (AA 1-148) into pSG5_CMV to create the TEAD1 (FL)_hum_pSG5Gal4_CMV. The full-length YAP mutant (S127A, S397A) was also cloned into pSG5_CMV to create the YAP (FL)_hum_pSG5_mutS127A_S397A_CMV. The reporter plasmid GAL4(5×RE)_TK(−105/+56)_pGL3-Basic contains 5 copies of the GAL4 responsive element (5′-TCGGAGGACAGTACTCC-3′) upstream of the thymidine kinase (TK) promoter (−105/+56) inserted in a pGL3-Basic vector. To evaluate the selectivity of our compounds in blocking the YAP-TEAD interaction, a counter-screening protein-protein interaction transactivation assay was also established. Briefly, two other expression plasmids, the pBD-P53 which expresses the P53 (AA 72-390) in fusion with Gal4 and the pAD-SV40T which expresses the SV40 large T antigen (AA 84-708,AgT), were created. HEK293 cells were seeded at 5×10^4 cells/well in 96 well plates (assay plates) in DMEM medium containing 4.5 g/L D-glucose, 10% high inactivated (HI) fetal bovine serum 1% Glutamax, 1% non-essential amino acid and 1% sodium pyruvate and 0.5% penicillin/streptomycin at 37° C. in a humidified atmosphere of 8% CO2. After 24 h, transfections were performed using Jet-PEI as transfectant (101B-010 Polyplus Transfection), according to the instructions of the manufacturer (N/P=10) and a ratio YAP/TEAD=10 (per well: 50 ng of YAP(FL), 5 ng of TEAD(FL) and 50 ng of reporter plasmid). Six hours after cell transfection, the plates (‘assay plate’) were washed with 100 μl PBS per well and cells were treated with compounds in semi-log from 0.1 μM to 30 μM or DMSO 0.5% as control in DMEM, 4.5 g/L D-Glucose without phenol red, 0.3% BSA, 1% glutamax, 1% NEAA, 1% sodium pyruvate. 24 h later, the luciferase activity was determined after addition of 100 μl of Steady Glo™ luciferase assay system (Promega E2550) according to the manufacturer's directions. Luciferase activity in cell extracts was measured by reading luminescence using the Envision device.
The cellular response was determined by fitting the concentration response curves using a 3-parameter curve fit equation and determining the concentration that inhibited the luciferase activity by 50%.

T1 sequence (P28347 whole entry): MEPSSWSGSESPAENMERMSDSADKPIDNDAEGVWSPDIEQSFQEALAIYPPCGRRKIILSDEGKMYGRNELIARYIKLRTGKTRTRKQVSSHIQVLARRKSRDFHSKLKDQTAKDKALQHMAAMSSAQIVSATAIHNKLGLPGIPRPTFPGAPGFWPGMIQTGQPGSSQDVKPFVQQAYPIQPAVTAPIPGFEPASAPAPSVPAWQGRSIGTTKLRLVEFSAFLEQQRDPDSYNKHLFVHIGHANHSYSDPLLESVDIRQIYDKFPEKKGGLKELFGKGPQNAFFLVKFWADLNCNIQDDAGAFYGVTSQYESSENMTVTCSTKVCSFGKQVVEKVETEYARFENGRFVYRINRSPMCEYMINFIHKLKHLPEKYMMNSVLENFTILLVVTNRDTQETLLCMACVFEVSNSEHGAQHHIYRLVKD

| Emax [%] | IC50 [nM] | Compound |
| --- | --- | --- |
| 83 | 510 | CCc1csc2c(N(C)/N=C/c3ccc4c(c3)COB4O)ncnc12 [Ex105, 7-ethyl-N-[(E)-(1-hydroxy-3H-2,1-benzoxaborol-5-yl)methyleneamino]-N-methyl-thieno[3,2-d]pyrimidin-4-amine] |
| 58 | 990 | CCN(/N=C/c1ccc(B(O)O)c(OC)c1)c1ncnc2c(C)csc12 [Ex62, [4-[(E)-[ethyl-(7-methylthieno[3,2-d]pyrimidin-4-yl)hydrazono]methyl]-2-methoxy-phenyl]boronic acid] |
| 86 | 1940 | CCN(/N=C/c1ccc2c(c1)COB2O)c1ncnc2c(C(=O)NCCCCOC)csc12 [Ex116, 4-[ethyl-[(E)-(1-hydroxy-3H-2,1-benzoxaborol-5-yl)methyleneamino]-amino]-N-(4-methoxybutyl)thieno[3,2-d]pyrimidine-7-carboxamide] |
| 82 | 590 | CCN(/N=C/c1ccc2c(c1)COB2O)c1ncnc2ncsc12 [Ex87, N-ethyl-N-[(E)-(1-hydroxy-3H-2,1-benzoxaborol-5-yl)methyleneamino]-thiazolo[4,5-d]pyrimidin-7-amine] |
| 85 | 640 | CCN(/N=C/c1ccc2c(c1)COB2O)c1ncnc2c3c(sc12)CCCC3 [Ex91, N-ethyl-N-[(E)-(1-hydroxy-3H-2,1-benzoxaborol-5-yl)methyleneamino]-6,7,8,9-tetrahydrobenzothiopheno[3,2-d]pyrimidin-4-amine] |
| 87 | 100 | COCCCN(/N=C/c1ccc2c(c1)COB2O)c1ncnc2nc(SC)sc12 [Ex96, N-[(E)-(1-hydroxy-3H-2,1-benzoxaborol-5-yl)methyleneamino]-N-(3-methoxypropyl)-2-methylsulfanyl-thiazolo[4,5-d]pyrimidin-7-amine] |
| 79 | 660 | Cc1csc2c(N(CCO)/N=C/c3ccc4c(c3)COB4O)ncnc12 [Ex97, 2-[[(E)-(1-hydroxy-3H-2,1-benzoxaborol-5-yl)methyleneamino]-(7-methylthieno[3,2-d]pyrimidin-4-yl)amino]ethanol] |
| 85 | 1410 | CN(/N=C/c1ccc2c(c1)COB2O)c1ncnc2c1CCC(=O)N2 [Ex100, 4-[[(E)-(1-hydroxy-3H-2,1-benzoxaborol-5-yl)methyleneamino]-methyl-amino]-6,8-dihydro-5H-pyrido[2,3-d]pyrimidin-7-one] |
| 77 | 430 | Cc1csc2c(N3N=C(c4ccc5c(c4)COB5O)CCC3C)ncnc12 (single isomer, unassigned; (+)) [Ex119, (+) 4-[6-(1-hydroxy-3H-2,1-benzoxaborol-5-yl)-3-methyl-4,5-dihydro-3H-pyridazin-2-yl]-7-methyl-thieno[3,2-d]pyrimidine] |

Further lines, the molecule ahead of its results:

| Compound | Emax [%] | IC50 [nM] |
| --- | --- | --- |
| COc1cc(C2=NN(c3ncnc4cc(F)ccc34)CC(C)O2)ccc1B(O)O (centres unmarked) [Ex74, [4-[4-(7-fluoroquinazolin-4-yl)-6-methyl-5,6-dihydro-1,3,4-oxadiazin-2-yl]-2-methoxy-phenyl]boronic acid] | 83 | 2360 |
| CN(/N=C/c1ccc2c(c1)COB2O)C1=NS(=O)(=O)C2=C1CCCC2 [Ex 51, N-[(E)-(1-hydroxy-3H-2,1-benzoxaborol-5-yl)methyleneamino]-N-methyl-1,1-dioxo-4,5,6,7-tetrahydro-1,2-benzothiazol-3-amine] | 75 | 8480 |
| COc1cc(C2=NN(c3ncnc4c3ccn4C)C(C)CC2)ccc1B(O)O (centres unmarked) [Ex73, [2-methoxy-4-[3-methyl-2-(7-methylpyrrolo[2,3-d]pyrimidin-4-yl)-4,5-dihydro-3H-pyridazin-6-yl]phenyl]boronic acid] | 88 | 2240 |
| CC(C)CN(/N=C/c1ccc2c(c1)C(C)OB2O)C1=NS(=O)(=O)c2ccccc21 (centres unmarked) [Ex 49, N-[(E)-(1-hydroxy-3-methyl-3H-2,1-benzoxaborol-5-yl)methyleneamino]-N-isobutyl-1,1-dioxo-1,2-benzothiazol-3-amine] | 88 | 4680 |
| COc1cc(/C=N/N(CC(C)C)C2=NS(=O)(=O)c3ccc(C)cc32)ccc1B(O)O [Ex 7, [4-[(E)-[isobutyl-(5-methyl-1,1-dioxo-1,2-benzothiazol-3-yl)hydrazono]-methyl]-2-methoxy-phenyl]boronic acid] | 95 | 3430 |
| CCN(/N=C/c1ccc(B(O)O)c(OC)c1)c1ncnc2ncsc12 [Ex64, [4-[(E)-[ethyl(thiazolo[4,5-d]pyrimidin-7-yl)hydrazono]methyl]-2-methoxy-phenyl]boronic acid] | 96 | 2760 |
| CCN(/N=C/c1ccc(B(O)O)c(OC)c1)C1=NS(=O)(=O)c2ccccc21 [Ex 4, [4-[(E)-[(1,1-dioxo-1,2-benzothiazol-3-yl)-ethyl-hydrazono]methyl]-2-methoxy-phenyl] boronic acid] | 76 | 6160 |
| COc1cc(/C=N/N(CC(C)C)C2=NS(=O)(=O)c3ccccc32)cc2c1B(O)OC2 [Ex 48, N-[(E)-(1-hydroxy-7-methoxy-3H-2,1-benzoxaborol-5-yl)methyleneamino]-N-isobutyl-1,1-dioxo-1,2-benzothiazol-3-amine] | 77 | – |
| COc1ccc2c(c1)C(N(CC(C)C)/N=C/c1ccc(B(O)O)c(OC)c1)=NS2(=O)=O [Ex 2, [4-[(E)-[isobutyl-(5-methoxy-1,1-dioxo-1,2-benzothiazol-3-yl)hydrazono]methyl]-2-methoxy-phenyl]boronic acid] | 95 | 2280 |
| CC(C)CN(/N=C/c1ccc2c(c1)COB2O)C1=NS(=O)(=O)c2ccccc21 [Ex 23, N-[(E)-(1-hydroxy-3H-2,1-benzoxaborol-5-yl)methyleneamino]-N-isobutyl-1,1-dioxo-1,2-benzothiazol-3-amine] | 88 | 3110 |
| CC1CCC(c2ccc3c(c2)COB3O)=NN1c1ncnc2c3c(sc12)CCCC3 (centres unmarked) [Ex122, 4-[6-(1-hydroxy-3H-2,1-benzoxaborol-5-yl)-3-methyl-4,5-dihydro-3H-pyridazin-2-yl]-6,7,8,9-tetrahydrobenzothiopheno[3,2-d]pyrimidine] | 94 | 820 |
| CCOc1cc(/C=N/N(CC(C)C)C2=NS(=O)(=O)c3ccccc32)ccc1B(O)O [Ex 14, [4-[(E)-[(1,1-dioxo-1,2-benzothiazol-3-yl)-isobutyl-hydrazono]methyl]-2-ethoxyphenyl]boronic acid] | 90 | – |
| CC(C)CN(/N=C/c1ccc(B(O)O)cc1)C1=NS(=O)(=O)c2ccccc21 [Ex 8, [4-[(E)-[(1,1-dioxo-1,2-benzothiazol-3-yl)-isobutyl-hydrazono]methyl]-phenyl] boronic acid] | 74 | – |
| CC(C)CN(/N=C/c1ccc2c(c1)CCOB2O)C1=NS(=O)(=O)c2ccccc21 [Ex 46, N-[(E)-(1-hydroxy-3,4-dihydro-2,1-benzoxaborinin-6-yl)methyleneamino]-N-isobutyl-1,1-dioxo-1,2-benzothiazol-3-amine] | 72 | – |
| CC1CCC(c2ccc3c(c2)COB3O)=NN1c1ncnc2occc12 (centres unmarked) [Ex117, 4-[6-(1-hydroxy-3H-2,1-benzoxaborol-5-yl)-3-methyl-4,5-dihydro-3H-pyridazin-2-yl]furo[2,3-d]pyrimidine] | 82 | 690 |
| COc1ccc2c(c1)S(=O)(=O)N=C2N(CC(C)C)/N=C/c1ccc2c(c1)COB2O [Ex 30, N-[(E)-(1-hydroxy-3H-2,1-benzoxaborol-5-yl)methyleneamino]-N-isobutyl-6-methoxy-1,1-dioxo-1,2-benzothiazol-3-amine] | 86 | 3840 |
| COc1cc(OC)c2c(c1)C(N(CC(C)C)/N=C/c1ccc(B(O)O)c(Cl)c1)=NS2(=O)=O [Ex 15, [2-chloro-4-[(E)-[(5,7-dimethoxy-1,1-dioxo-1,2-benzothiazol-3-yl)-isobutyl-hydrazono]methyl]phenyl]boronic acid] | 95 | – |
